In the assay the target is T1, Tyrosine-protein phosphatase non-receptor type 1 (Homo sapiens) (UniProt P18031).
T1 sequence (whole entry): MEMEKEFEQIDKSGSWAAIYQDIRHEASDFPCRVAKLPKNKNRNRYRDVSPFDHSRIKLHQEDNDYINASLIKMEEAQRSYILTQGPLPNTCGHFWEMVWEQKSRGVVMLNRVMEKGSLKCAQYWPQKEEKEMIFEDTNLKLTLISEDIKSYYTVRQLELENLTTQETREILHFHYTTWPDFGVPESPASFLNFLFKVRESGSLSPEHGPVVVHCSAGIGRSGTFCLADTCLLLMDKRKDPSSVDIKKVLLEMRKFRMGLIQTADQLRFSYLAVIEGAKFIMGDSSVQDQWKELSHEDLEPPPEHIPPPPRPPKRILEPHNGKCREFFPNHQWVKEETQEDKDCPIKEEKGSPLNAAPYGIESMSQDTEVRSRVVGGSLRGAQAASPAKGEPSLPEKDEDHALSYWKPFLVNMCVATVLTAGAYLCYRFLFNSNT
Description: Binding affinity for protein tyrosine phosphatase 1B.

Compound `NCc1ccc(NC(=O)C(=O)O)cc1` returned an Affinity of 86 µM.
